The source of these data is patent publication US11274100B2, “EP300/CREBBP inhibitor” (Daiichi Sankyo Company, Limited, priority 2017, dated 2022).

For assay [1], the system named is TE-8 cells. Put plainly: Antitumor activity in TE-8 cell subcutaneous transplant model (Test Example 5). Type of assay: in vivo, female BALB/c-nu/nu mice. The conditions noted are these: TE-8 subcutaneous transplant model, dose 6 mg/kg/day, test end day. The text has this: [Test Example 5] Evaluation of Antitumor Activity in TE-8 Cell Subcutaneous Transplant Model
TE-8 cells were transplanted at a rate of 1×10^7 cells/head subcutaneously into a right abdominal site of each of female BALB/c-nu/nu mice, and 9 days after (Example 73) or 10 days after (Examples 35 and 84), the mice were grouped into groups each consisting of 5 mice based on an estimated tumor volume (longer diameter×shorter diameter×shorter diameter/2) and the weight. The TE-8 cells were purchased from Riken Cell Bank. The female BALB/c-nu/nu mice were purchased from Charles River Laboratories Japan, Inc.
From the day of grouping, the compound of Example 73 at a dose set to 2 mg/kg/day was orally administered in accordance with a schedule of twice a day continuously for 9 days (BID x 9). The estimated tumor volume of each individual was measured from the day of grouping until 18 days after the transplantation (test end day).
Besides, from the day of grouping, the compound of […] at a dose set to 2 mg/kg/day was orally administered in accordance with a schedule of twice a day continuously for 11 days (BID x 11). The estimated tumor volume of each individual was measured from the day of grouping until 21 days after the transplantation (test end day).
(§1) The antitumor activity in LK2 cell subcutaneous transplant model of Test Example 4, the antitumor activity in TE-8 cell subcutaneous transplant model of Test Example 5, the antitumor activity in KARPASS-422 cell subcutaneous transplant model of Test Example 6, the antitumor activity in NMC10-15 cell subcutaneous transplant model of Test Example 7, and the antitumor activity in VCaP cell subcutaneous transplant model of Test Example 8 were respectively calculated on the end dates of the tests in accordance with the following equation: Tumor Growth Inhibition Rate %=(1−TVCt/TVCc)×100 TVC=(individual tumor volume on test end day)−(individual tumor volume on grouping day)
TVCt: average of TVC values of administration group
TVCc: average of TVC values of non-administration group

The target in another assay is EP300 (Homo sapiens, UniProt Q09472). Put plainly: Histone acetyltransferase inhibitory activity against EP300 (Test Example 1). It counts as biochemical. The conditions noted are these: 50 ng/mL EP300, 2 μM Acetyl-CoA, 100 nM Histone H4(1-25)-GSGSK (Biotin), 28° C. for 1 hour. In a few lines: (§2)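 Enzyme (50 ng/mL EP300 or 125 ng/mL CREBBP) incubated 1 h at 28° C with 2 μM acetyl-CoA, 100 nM biotinylated histone H4(1-25) peptide and 10 to 0.0006 μM compound in pH 8.0 Tris buffer with 330 nM trichostatin A, 1% DMSO. Reaction stopped with Lys-CoA; acetylation read by TR-FRET (Eu-anti pan-Ac/Sta-ULight) after overnight room-temperature incubation.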
Sequence of EP300 (Q09472 whole entry): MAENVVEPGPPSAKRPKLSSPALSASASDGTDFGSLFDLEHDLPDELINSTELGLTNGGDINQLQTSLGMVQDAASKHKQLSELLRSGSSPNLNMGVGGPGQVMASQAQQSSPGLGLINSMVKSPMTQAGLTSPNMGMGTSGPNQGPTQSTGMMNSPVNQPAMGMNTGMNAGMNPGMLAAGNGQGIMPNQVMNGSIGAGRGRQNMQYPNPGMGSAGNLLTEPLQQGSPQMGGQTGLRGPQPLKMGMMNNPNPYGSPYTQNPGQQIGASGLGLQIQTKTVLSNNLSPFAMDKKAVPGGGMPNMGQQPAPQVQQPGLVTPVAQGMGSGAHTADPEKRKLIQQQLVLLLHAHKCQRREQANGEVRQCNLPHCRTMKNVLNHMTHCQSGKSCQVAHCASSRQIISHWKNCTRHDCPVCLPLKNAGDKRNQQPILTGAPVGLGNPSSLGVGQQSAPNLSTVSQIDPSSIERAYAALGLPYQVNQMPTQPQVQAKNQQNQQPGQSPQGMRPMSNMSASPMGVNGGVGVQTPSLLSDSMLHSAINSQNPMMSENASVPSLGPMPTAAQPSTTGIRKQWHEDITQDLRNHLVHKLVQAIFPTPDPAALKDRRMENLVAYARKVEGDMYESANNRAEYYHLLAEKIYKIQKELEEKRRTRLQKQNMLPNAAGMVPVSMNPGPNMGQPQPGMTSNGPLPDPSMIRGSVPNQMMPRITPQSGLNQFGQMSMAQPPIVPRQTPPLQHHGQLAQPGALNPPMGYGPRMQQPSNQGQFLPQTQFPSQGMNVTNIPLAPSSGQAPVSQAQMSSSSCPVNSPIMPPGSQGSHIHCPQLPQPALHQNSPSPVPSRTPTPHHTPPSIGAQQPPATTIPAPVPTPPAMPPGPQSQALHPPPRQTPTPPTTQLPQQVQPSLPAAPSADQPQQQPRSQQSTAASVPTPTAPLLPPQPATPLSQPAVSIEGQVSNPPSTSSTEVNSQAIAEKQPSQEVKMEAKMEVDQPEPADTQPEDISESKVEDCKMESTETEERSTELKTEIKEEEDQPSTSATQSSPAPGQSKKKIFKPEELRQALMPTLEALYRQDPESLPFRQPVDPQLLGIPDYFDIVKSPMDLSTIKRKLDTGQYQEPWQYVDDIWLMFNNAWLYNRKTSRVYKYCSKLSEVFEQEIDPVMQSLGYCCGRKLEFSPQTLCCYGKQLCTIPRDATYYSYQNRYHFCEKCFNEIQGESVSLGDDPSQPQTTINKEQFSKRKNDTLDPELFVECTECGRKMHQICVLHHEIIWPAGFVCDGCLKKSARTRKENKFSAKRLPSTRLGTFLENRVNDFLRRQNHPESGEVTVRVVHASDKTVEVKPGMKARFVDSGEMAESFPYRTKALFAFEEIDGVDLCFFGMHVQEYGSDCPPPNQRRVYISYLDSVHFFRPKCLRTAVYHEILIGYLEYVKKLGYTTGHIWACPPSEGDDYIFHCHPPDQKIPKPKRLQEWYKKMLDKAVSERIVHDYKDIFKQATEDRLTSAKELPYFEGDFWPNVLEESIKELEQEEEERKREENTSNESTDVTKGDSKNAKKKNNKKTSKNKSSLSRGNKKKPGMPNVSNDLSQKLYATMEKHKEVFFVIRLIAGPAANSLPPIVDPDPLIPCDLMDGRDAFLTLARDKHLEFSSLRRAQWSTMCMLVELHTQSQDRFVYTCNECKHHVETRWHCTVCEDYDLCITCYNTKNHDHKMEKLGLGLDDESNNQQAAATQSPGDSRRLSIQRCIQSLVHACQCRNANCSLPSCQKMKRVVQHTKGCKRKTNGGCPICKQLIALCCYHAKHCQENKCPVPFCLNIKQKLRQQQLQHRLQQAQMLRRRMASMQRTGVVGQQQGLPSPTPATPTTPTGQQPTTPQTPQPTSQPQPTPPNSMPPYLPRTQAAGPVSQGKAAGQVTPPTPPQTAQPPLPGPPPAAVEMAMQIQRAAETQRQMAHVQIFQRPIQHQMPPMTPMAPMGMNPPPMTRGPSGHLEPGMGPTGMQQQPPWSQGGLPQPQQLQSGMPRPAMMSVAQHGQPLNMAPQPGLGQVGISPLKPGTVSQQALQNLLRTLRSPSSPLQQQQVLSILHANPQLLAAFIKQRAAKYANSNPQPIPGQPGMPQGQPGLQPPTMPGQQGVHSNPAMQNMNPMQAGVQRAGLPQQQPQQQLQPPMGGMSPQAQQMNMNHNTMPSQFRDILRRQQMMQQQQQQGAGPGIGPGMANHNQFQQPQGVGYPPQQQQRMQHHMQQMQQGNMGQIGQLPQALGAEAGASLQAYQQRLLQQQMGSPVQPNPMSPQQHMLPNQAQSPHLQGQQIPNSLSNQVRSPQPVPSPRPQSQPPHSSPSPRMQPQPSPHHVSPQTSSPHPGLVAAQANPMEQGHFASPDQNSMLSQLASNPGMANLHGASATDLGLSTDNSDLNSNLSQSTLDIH

The target of a further assay is CREBBP (Homo sapiens, UniProt Q92793). Put plainly: Histone acetyltransferase inhibitory activity against CREBBP (Test Example 1). Type of assay: biochemical. The conditions noted are these: 125 ng/mL CREBBP, 2 μM Acetyl-CoA, 100 nM Histone H4(1-25)-GSGSK (Biotin), 28° C. for 1 hour. In a few lines:
as §2

For assay [2], the system named is LK2 cells. The experiment in a line: Antitumor activity in LK2 cell subcutaneous transplant model (Test Example 4). It counts as in vivo, female BALB/c-nu/nu mice. The conditions noted are these: dose 12.5 mg/kg/day, test end day.
Text: [Test Example 4] Evaluation of Antitumor Activity in LK2 Cell Subcutaneous Transplant Model
LK2 cells were transplanted at a rate of 2×10^6 cells/head subcutaneously into a right abdominal site of each of female BALB/c-nu/nu mice, and 7 days after, the mice were grouped into groups each consisting of 5 mice based on an estimated tumor volume (longer diameter×shorter diameter×shorter diameter/2) and the weight. The LK2 cells were purchased from Human Science Research Resources Bank. […] The estimated tumor volume of each individual was measured from the day of grouping until 18 days after the transplantation (test end day).
as §1
TVCt: average of TVC values of administration group […]

In a further assay the test system is KARPAS-422 cells. The experiment in a line: Antitumor activity in KARPAS-422 cell subcutaneous transplant model (Test Example 6). Type of assay: in vivo, female SCID mice. The conditions noted are these: KARPAS422 subcutaneous transplant model, dose 6 mg/kg/day, test end day.
Text: [Test Example 6] Evaluation of Antitumor Activity in KARPAS-422 Cell Subcutaneous Transplant Model
KARPAS-422 cells of human diffuse large B-cell lymphoma were transplanted at a rate of 2×10^7 cells/head subcutaneously into a right abdominal site of each of female SCID mice, and 10 days after, the mice were grouped into groups each consisting of 5 mice based on an estimated tumor volume (longer diameter×shorter diameter×shorter diameter/2) and the weight. The KARPAS-422 cells were purchased from Deutsche Sammlung von Mikroorganismen und Zelkulturen GmbH. […] The estimated tumor volume of each individual was measured from the day of grouping until 28 days after the transplantation (test end day).
as §1, with “grouping day) […]” for “grouping day)”

In another assay the test system is H3K27Ac. Put plainly: Intracellular H3K27Ac inhibitory activity in LK2 cells (Test Example 2). Type of assay: cell-based. The conditions noted are these: Homo sapiens, LK-2, cultured with compound for 3 hours, read-out: Test Example 2 H3K27Ac Inhibition (LK2) IC50. In a few lines: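 Human squamous lung cancer LK2 cells (40000/well) cultured overnight at 37 °C, 5% CO2 before treatment. After paraformaldehyde fixation, peroxide quench and blocking, H3K27 acetylation detected with anti-acetyl-H3K27 rabbit mAb (4 °C overnight) and HRP secondary; chemiluminescent read-out.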

Another assay has as its system NMC10-15 cells. Put plainly: Antitumor activity in NMC10-15 cell subcutaneous transplant model (Test Example 7). The conditions noted are these: NMC10-15 subcutaneous transplant model, dose 3 mg/kg/day, oral, QD×9, 15 days after transplantation. Type of assay: in vivo, female BALB/c-nu/nu mice.
Text: [Test Example 7] Evaluation of Antitumor Activity in NMC10-15 Cell Subcutaneous Transplant Model
NMC10-15 cells derived from human nut midline carcinoma were transplanted at a rate of 5×10^6 cells/head subcutaneously into a right abdominal site of each of female BALB/c-nu/nu mice, and 6 days after, the mice were grouped into groups each consisting of 5 mice based on an estimated tumor volume (longer diameter×shorter diameter×shorter diameter/2) and the weight. […] The estimated tumor volume of each individual was measured from the day of grouping until 15 days after the transplantation (test end day).
as §1, with “grouping day) […]” for “grouping day)”

The subject of the next assay is VCaP cells. Put plainly: Antitumor activity in VCaP cell subcutaneous transplant model (Test Example 8). Type of assay: in vivo, male NSG mice. The note with it: dose 6 mg/kg/day, oral, QD×16, 24 days after transplantation.
Text: [Test Example 8] Evaluation of Antitumor Activity in VCaP Cell Subcutaneous Transplant Model
VCaP cells derived from human prostate cancer were transplanted at a rate of 1×10^7 cells/head subcutaneously into a right abdominal site of each of male NSG mice, and 8 days after, the mice were grouped into groups each consisting of 5 mice based on an estimated tumor volume (longer diameter×shorter diameter×shorter diameter/2) and the weight. The VCaP cells were purchased from American Type Culture Collection. […] The estimated tumor volume of each individual was measured from the day of grouping until 24 days after the transplantation (test end day).
as §1, with “grouping day) […]” for “grouping day)”

Assay [3] concerns LK2 cells. The experiment in a line: Cell growth inhibitory activity, LK2 cells (Test Example 3). It counts as cell-based. The note with it: Homo sapiens, LK-2, 72 h, cultured for 3 days, CellTiter-Glo. The gist of the method:
(§3)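 LK2 and TE-8 […] cells in RPMI 1640 with 10% FBS exposed to 10-point 4-fold dilutions (10 mM to 38 nM, stock series) for 3 days. ATP luminescence (CellTiter-Glo 2.0) at day 0 and day 3 gave survival as (T3−C0)/(C3−C0)×100; GI50 from semilog plot.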
A general note: In ATP-based viability assays light output follows the ATP content of the culture.

The test system of assay [4] is TE-8 cells. Put plainly: Cell growth inhibitory activity, TE-8 cells (Test Example 3). Type of assay: cell-based. The conditions noted are these: Homo sapiens, 72 h, cultured for 3 days, CellTiter-Glo. The gist of the method: as §3

Sequence of CREBBP (Q92793 whole entry): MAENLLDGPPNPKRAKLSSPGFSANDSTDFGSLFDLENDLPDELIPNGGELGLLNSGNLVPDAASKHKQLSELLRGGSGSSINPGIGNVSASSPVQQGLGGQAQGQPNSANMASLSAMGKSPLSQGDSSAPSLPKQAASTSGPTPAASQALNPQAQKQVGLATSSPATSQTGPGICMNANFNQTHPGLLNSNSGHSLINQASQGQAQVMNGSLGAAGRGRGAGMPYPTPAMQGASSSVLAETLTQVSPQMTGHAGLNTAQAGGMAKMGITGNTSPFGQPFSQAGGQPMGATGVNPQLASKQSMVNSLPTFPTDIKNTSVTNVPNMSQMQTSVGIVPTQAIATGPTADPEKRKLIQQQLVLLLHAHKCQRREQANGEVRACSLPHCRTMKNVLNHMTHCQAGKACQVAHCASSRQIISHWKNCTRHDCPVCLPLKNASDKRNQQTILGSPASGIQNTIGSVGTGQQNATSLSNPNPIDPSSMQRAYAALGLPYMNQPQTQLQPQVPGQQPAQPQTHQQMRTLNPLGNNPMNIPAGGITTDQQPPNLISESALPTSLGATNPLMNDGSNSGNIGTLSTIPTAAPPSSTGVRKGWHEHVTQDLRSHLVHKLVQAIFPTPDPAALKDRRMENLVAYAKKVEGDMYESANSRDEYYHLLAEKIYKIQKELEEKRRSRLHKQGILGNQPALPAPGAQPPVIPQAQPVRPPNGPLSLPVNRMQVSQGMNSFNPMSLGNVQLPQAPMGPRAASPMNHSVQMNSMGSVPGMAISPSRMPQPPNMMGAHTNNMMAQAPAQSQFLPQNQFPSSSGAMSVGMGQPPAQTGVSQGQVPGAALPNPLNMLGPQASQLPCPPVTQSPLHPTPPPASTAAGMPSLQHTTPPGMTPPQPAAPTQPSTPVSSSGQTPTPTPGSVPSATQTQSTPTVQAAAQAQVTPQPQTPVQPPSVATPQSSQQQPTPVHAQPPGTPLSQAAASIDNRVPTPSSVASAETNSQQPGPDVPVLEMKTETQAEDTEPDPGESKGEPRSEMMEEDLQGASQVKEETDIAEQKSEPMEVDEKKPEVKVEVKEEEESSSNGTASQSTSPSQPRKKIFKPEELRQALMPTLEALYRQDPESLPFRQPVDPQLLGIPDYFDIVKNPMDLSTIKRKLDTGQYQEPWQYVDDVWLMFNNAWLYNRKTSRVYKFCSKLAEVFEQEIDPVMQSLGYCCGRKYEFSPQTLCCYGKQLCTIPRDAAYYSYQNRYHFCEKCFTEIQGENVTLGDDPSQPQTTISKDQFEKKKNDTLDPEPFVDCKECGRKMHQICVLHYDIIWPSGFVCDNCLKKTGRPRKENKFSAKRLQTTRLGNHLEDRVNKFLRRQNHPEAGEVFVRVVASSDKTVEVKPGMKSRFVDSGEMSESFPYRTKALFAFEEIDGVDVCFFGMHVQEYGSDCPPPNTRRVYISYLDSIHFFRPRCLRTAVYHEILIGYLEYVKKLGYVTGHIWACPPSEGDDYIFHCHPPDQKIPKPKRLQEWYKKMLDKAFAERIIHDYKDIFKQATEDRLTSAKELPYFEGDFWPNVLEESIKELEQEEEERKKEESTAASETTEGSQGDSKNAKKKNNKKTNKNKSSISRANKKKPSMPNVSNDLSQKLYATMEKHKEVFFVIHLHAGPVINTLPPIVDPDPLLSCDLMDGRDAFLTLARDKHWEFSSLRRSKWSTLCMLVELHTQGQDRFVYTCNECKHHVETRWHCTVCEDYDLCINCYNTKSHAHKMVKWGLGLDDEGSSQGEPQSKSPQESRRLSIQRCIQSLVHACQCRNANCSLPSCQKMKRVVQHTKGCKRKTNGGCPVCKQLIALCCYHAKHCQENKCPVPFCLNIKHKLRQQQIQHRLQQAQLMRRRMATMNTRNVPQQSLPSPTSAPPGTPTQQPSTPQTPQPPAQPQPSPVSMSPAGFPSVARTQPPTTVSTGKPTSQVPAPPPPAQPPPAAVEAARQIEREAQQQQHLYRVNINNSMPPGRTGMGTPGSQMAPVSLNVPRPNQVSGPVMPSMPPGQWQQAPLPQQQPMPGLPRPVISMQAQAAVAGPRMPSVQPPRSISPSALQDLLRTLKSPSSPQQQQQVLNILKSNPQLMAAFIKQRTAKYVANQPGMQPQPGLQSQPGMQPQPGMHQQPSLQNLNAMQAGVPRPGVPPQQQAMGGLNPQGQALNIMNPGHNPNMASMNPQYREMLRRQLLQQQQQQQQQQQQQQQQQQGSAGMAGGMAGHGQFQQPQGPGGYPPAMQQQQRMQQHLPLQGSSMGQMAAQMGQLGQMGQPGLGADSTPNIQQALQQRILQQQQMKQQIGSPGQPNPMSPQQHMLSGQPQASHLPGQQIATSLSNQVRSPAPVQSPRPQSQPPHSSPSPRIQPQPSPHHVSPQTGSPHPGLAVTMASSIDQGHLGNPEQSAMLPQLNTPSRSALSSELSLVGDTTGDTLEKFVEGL

For orientation: IC50 means the point on the concentration scale where inhibition reaches its midpoint. For `COc1ccc(C2(C(=O)N3C[C@H](F)C[C@@H]3C(=O)Nc3ccc4[nH]ncc4n3)CCCCC2)cc1` [Example 35, (4R)-4-Fluoro-1-{[1-(4-methoxyphenyl)cyclohexyl]carbonyl}-N-1H-pyrazolo[4,3-b]pyridin-5-yl-D-prolinamide], the “Tumor Growth Inhibition Rate” value in the assay on TE-8 cells [1] is 51%; with LK2 cells [2] it was 44%; in the assay on KARPAS-422 cells it was 66%. Besides, the values for the IC50 on EP300 and against CREBBP were 24 nM and 10 nM, respectively.
As a reminder, the GI50 is the concentration that inhibits growth by half. As for `COc1ccc(C2(C(=O)N3C[C@H](F)C[C@@H]3C(=O)Nc3ccc4[nH]ncc4n3)CCC(F)(F)CC2)cc1` [Example 60, (4R)-1-{[4,4-Difluoro-1-(4-methoxyphenyl)cyclohexyl]carbonyl}-4-fluoro-N-1H-pyrazolo[4,3-b]pyridin-5-yl-D-prolinamide], the IC50 in the assay on H3K27Ac worked out at 54 nM; against EP300, 28 nM; on CREBBP, 67 nM. Moreover, the “Tumor Growth Inhibition Rate” value in the assay with NMC10-15 cells is 99%; with VCaP cells it was 89%. For the same molecule, the GI50 was found to be 211 nM in the assay with LK2 cells [3] and 311 nM in the assay on TE-8 cells [4].
